Measured values: patent publication US9492436B2, “Azabenzimidazole derivatives” (Boehringer Ingelheim International GmbH, priority 2013, dated 2016)
Converted amounts (≈) assume the structure as drawn.

Columns and labels:
[1] = Aqueous solubility (buffer vs acetonitrile/water, 24 h shaking, LC-UV); type: physicochemical; conditions: kinetic from dmso stock, 2.5% DMSO, ">" = more than 90% dissolved
Protocol: The aqueous solubility of the compounds of the invention is determined by comparing the amount dissolved in buffer to the amount in an acetonitrile/water (1/1) solution. Starting from a 10 mM DMSO stock solution aliquots are diluted with acetonitrile/water (1/1) or buffer resp. After 24 h of shaking, the solutions are filtrated and analyzed by LC-UV. The amount dissolved in buffer is compared to the amount in the acetonitrile solution.
Solubility is usually being measured from 0.001 to 0.125 mg/ml at a DMSO concentration of 2.5%. If more than 90% of the compound is dissolved in buffer, the value is marked with “>”.

plasma proteins [2] = assay: Plasma protein binding by equilibrium dialysis, human plasma; type: in vitro ADME; conditions: 37° C.
Protocol: (§1) Equilibrium dialysis (ED) technique is used to determine the approximate in vitro fractional binding of test compounds to plasma proteins (human, rat mouse):
(§2) Teflon dialysis cells or RED-devices are used. Each cell consists of a donor and an acceptor chamber, separated by an ultrathin semipermeable membrane (cutoff 5-10 kDa, high permeability).
(§3) Stock solutions for each test compound are prepared in DMSO. Plasma (anticoagulant EDTA) is spiked with test compound and then transferred into the donor chamber, while dialysis buffer (PBS containing Dextran, pH 7.4) is dispensed into the acceptor chamber.
(§4) Dextran (Leuconostoc ssp, MW approx. 40000, No. 31389, Fluka) concentration [g/L] in PBS for species: • human: 40 g/L buffer • rat: 37 g/L buffer • mouse 32 g/L buffer.
(§5) Incubation is carried out for up to 6 hours (standard 3 h) under rotation at 37° C. After the dialysis period aliquots of both dialysates are analysed using HPLC-MS/MS.
(§6) Percent bound is calculated according to the equation: % bound=(Cp−Cb/Cp)×100 • Cp=plasma concentration • Cb=buffer concentration
(§7) Percent free is calculated according to the equation: % free=100−% bound

plasma proteins [3] = assay: Plasma protein binding by equilibrium dialysis, rat plasma; type: in vitro ADME; conditions: 37° C.
Protocol: as §1, §2, §3, §4, §5, §6, §7

plasma proteins [4] = assay: Plasma protein binding by equilibrium dialysis, mouse plasma; type: in vitro ADME; conditions: 37° C.
Protocol: as §1, §2, §3, §4, §5, §6, §7

[5] = target: T1, AMPK complex 1 (containing alpha1beta1gamma1) (Homo sapiens, UniProt Q13131+Q9Y478); assay: In vitro AMPK activation assay (ADP-Glo Kinase Assay); type: biochemical; conditions: 30 μM ATP, 1 μM peptide, 60 min, room temperature
T1 construct: GST (Glutathion S transferase) (N); made in house; host or cells: baculovirus; virus made in Sf9, expression in High Five cells
In short: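 GST-tagged human AMPK alpha1beta1gamma1 expressed in insect cells, incubated with 1 μM peptide substrate and 30 μM ATP for 60 min at room temperature, 0.1% DMSO. ADP-Glo luminescence as % of vehicle control (AMP 30 μM high reference); EC50 from 4-parameter fit; activation above 100%.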

T1 sequence (Q13131 whole entry): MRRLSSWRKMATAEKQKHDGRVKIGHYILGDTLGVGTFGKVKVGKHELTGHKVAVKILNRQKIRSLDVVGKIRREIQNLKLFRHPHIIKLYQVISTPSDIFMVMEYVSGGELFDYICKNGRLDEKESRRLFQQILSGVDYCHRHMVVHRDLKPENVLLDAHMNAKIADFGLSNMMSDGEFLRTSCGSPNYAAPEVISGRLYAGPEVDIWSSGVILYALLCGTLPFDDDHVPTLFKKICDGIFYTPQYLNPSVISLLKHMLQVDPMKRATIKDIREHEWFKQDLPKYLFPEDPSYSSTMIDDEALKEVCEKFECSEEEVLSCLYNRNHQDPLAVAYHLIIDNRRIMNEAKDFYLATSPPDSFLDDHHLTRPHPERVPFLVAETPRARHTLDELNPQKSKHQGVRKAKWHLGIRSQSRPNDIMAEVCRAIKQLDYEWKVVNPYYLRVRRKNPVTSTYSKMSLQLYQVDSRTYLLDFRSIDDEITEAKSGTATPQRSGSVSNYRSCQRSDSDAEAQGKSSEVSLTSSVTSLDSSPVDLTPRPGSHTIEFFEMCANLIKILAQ
T1 sequence (Q9Y478 whole entry): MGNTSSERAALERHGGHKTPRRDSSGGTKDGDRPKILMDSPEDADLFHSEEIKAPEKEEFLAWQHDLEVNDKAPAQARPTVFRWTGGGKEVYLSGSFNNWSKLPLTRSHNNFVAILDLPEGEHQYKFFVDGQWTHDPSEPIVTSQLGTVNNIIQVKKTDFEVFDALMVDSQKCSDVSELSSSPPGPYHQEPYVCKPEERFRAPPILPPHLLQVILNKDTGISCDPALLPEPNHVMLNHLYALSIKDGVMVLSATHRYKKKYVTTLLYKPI
T1 sequence (P54619 whole entry partner): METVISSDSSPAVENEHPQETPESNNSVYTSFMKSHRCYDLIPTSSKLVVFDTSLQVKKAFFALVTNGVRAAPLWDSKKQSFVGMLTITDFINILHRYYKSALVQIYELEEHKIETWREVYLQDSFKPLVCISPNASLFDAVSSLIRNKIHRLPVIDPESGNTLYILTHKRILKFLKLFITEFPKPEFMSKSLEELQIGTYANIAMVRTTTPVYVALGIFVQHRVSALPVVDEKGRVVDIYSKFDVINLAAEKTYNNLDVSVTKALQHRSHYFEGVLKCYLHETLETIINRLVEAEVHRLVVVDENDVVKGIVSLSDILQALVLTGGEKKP

| solubility at 24 h ([1]; pH 2.2 buffer) | solubility at 24 h ([1]; pH 4.5 buffer) | solubility at 24 h ([1]; pH 6.8 buffer) | Plasma Protein Binding (plasma proteins [2]) | Plasma Protein Binding (plasma proteins [3]) | Plasma Protein Binding (plasma proteins [4]) | SMILES | EC50 [5] |
| --- | --- | --- | --- | --- | --- | --- | --- |
| 17 µg/mL (≈ 31.4 µM) | 2 µg/mL (≈ 3.7 µM) | 1 µg/mL (≈ 1.85 µM) | 98.55 % bound | 98.67 % bound | 98.68 % bound | CS(C)(=O)=Nc1ccc(-c2ccc(-c3nc4[nH]c(O[C@@H]5CO[C@H]6[C@@H]5OC[C@H]6O)nc4cc3Cl)cc2)cc1 [Example 2, N-(4′-(6-Chloro-2-((3R,3aR,6R,6aR)-6-hydroxyhexahydrofuro[3,2-b]furan-3-yloxy)-3H-imidazo[4,5-b]pyridin-5-yl)biphenyl-4-yl)-S,S-dimethylsulfoximide] | 3 nM |
| 105 µg/mL (≈ 194 µM) | < 1 µg/mL | < 1 µg/mL | 98.92 % bound | 98.23 % bound | 98.64 % bound | CN=S(C)(=O)c1ccc(-c2ccc(-c3nc4[nH]c(O[C@@H]5CO[C@H]6[C@@H]5OC[C@H]6O)nc4cc3Cl)cc2)cc1 (stereo partly drawn) [Example 10, (3R,3aR,6R,6aR)-6-(6-Chloro-5-(4′-(N,S-dimethylsulfonimidoyl)biphenyl-4-yl)-3H-imidazo[4,5-b]pyridin-2-yloxy)hexahydrofuro[3,2-b]furan-3-ol] | 4 nM |
| > 119 µg/mL | 5 µg/mL (≈ 9.01 µM) | < 1 µg/mL | 98.48 % bound | 98.94 % bound | 99.23 % bound | CS(C)(=O)=NCc1ccc(-c2ccc(-c3nc4[nH]c(O[C@@H]5CO[C@H]6[C@@H]5OC[C@H]6O)nc4cc3Cl)cc2)cc1 [Example 45, N-(4′-(6-Chloro-2-((3R,3aR,6R,6aR)-6-hydroxyhexahydrofuro[3,2-b]furan-3-yloxy)-3H-imidazo[4,5-b]pyridin-5-yl)biphenyl-4-ylmethyl)-S,S-dimethylsulfoximide] | 29 nM |
